Test results reported in patent US12612406B2, “Cytisine salts” (Achieve Pharma UK Limited, priority 2017, dated 2026).

assay: Lactose compatibility: stability of cytisine and cytisine salts with lactose on storage, cytisine by HPLC; assay type: physicochemical; settings: 25° C./60% RH and 40° C./75% RH, 7 and 14 days
Description: The stability of formulations of cytisine and the present cytisine salts with lactose was investigated. Samples were stored at 25° C. and 60% relative humidity (RH) and at 40° C. and 75% RH and evaluated after 7 and 14 days. […] Thus, these salts effectively improve the stability of cytisine and facilitates its formulation with compositions comprising lactose.

Compound | Degradation rate of cytisine compared with free base form
O=C(O)c1cc(O)ccc1O.O=c1cccc2n1C[C@@H]1CNC[C@H]2C1 [Gentisate, Cytisine Gentisate] | degraded at a substantially lower rate
CS(=O)(=O)O.O=c1cccc2n1C[C@@H]1CNC[C@H]2C1 [Mesylate, Cytisine Mesylate] | degraded at a substantially lower rate

assay: Screening of cytisine salt formation with acid salt formers; assay type: physicochemical; settings: API stock solution in 2-MeTHF; equimolar acid, 40° C. one hour, cooled to ambient
Description: Stock solutions of acid salt formers were prepared in the carrier solvents and having the molarities detailed in the following Table 1 below:
Stock solutions of cytisine API (non-synthetic) were also prepared in CH3CN and in Me-THF. 2.4 g of cytisine was dissolved in 60 ml of 2-Me-THF heated to a temperature of 60° C. 2.4 g of cytisine was dissolved in 24 ml of CH3CN heated to a temperature of 40° C.
200 ml capacity tubes heated to 40° C. were charged with 2 ml or 5 ml of the cytisine stock solution. The acid stock solutions were then added to the heated tubes in equimolar amounts. The solutions were held at 40° C. for one hour and then allowed to cool to ambient temperature (˜18° C.) for 18 hours.
Filtration of the obtained solids was then carried out using a PTFE fritted column and the obtained solids were dried at 50° C. for 48 hours. The properties of the obtained products were then analysed, and the outcome of this screen and the properties of the obtained products are summarised in Table 2 below: […]

Compound | Assessment (salt preparation)
CC(=O)O [Acetate] | Secondary precipitations, unstable salt
O=C(O)c1cc(O)ccc1O.O=c1cccc2n1C[C@@H]1CNC[C@H]2C1 [Gentisate, Cytisine Gentisate] | Excellent salt profile
O=C(O)C=CC(=O)O.O=c1cccc2n1CC1CNCC2C1 (stereo not shown) [Maleate, Cytisine Maleate] | Excellent salt profile
CS(=O)(=O)O.O=c1cccc2n1C[C@@H]1CNC[C@H]2C1 [Mesylate, Cytisine Mesylate] | Excellent salt profile
Ascorbate | Secondary precipitations, unstable salt
Benzoate | Failed to yield solid
Glucuronate | Failed to yield solid

same assay, conditions: API stock solution in CH3CN; equimolar acid, 40° C. one hour, cooled to ambient

Compound | Assessment (salt preparation)
CC(=O)O [Acetate] | Secondary precipitations, unstable salt
O=C(O)c1cc(O)ccc1O.O=c1cccc2n1C[C@@H]1CNC[C@H]2C1 [Gentisate, Cytisine Gentisate] | Excellent salt profile
O=C(O)C=CC(=O)O.O=c1cccc2n1CC1CNCC2C1 (stereo not shown) [Maleate, Cytisine Maleate] | Excellent salt profile
CS(=O)(=O)O.O=c1cccc2n1C[C@@H]1CNC[C@H]2C1 [Mesylate, Cytisine Mesylate] | Excellent salt profile
Ascorbate | Secondary precipitations, unstable salt
Benzoate | Failed to yield solid
Glucuronate | Failed to yield solid
